Reference: patent US9220794B2, “Two-photon fluorescent probes for imaging of total sulfide in live cell and tissue, and quantitative estimation of total sulfide concentration using the same” (Korea University Research and Business Foundation, priority 2013, dated 2015)

How the values were obtained:
[1] = One-photon absorption and emission spectra, fluorescence quantum yield; type: physicochemical; settings: for 10^−4 ε: value is ε×10^−4
Protocol: The solvatochromic effect observed for the compound of [Chemical Formula 2-6] may have resulted from the […] dipole moment.
Absorption spectra were recorded on the Hewlett-Packard 8453 diode array spectrophotometer and fluorescence spectra were obtained with the Amico-Bowman series 2 luminescence spectrometer with a 1-cm standard quartz cell.

[2] = Measurement of two-photon cross section (fs fluorescence technique, rhodamine 6G reference); type: physicochemical; settings: for Φδmax, two-photon action cross section: uncertainty ±15%
Protocol: Two-photon cross section (δ) was determined using a femtosecond (fs) fluorescence measurement technique.
The compound of [Chemical Formula 2-5] and the compound of [Chemical Formula 2-6] were dissolved in 20 mM HEPES buffer (pH 7.2) and 3.0×10^−6 M HEPES/EtOH (1/1) and then two-photon induced fluorescence intensity was measured at 740-940 nm using rhodamine 6G as a reference, whose two-photon property has been well characterized. The two-photon fluorescence intensities of the reference and the compound of [Chemical Formula 2-6] and the compound of [Chemical Formula 2-5] were determined.
The two-photon cross section was calculated from δ=δr(Ssφrφrcr)/(Srφsφscs). In the equation, the subscripts s and r stand for the sample, i.e., the compound of [Chemical Formula 2-6] and the compound of […], respectively. S denotes the intensity of the signal collected using a CCD detector, φ is the fluorescence quantum yield (measured using coumarin 307 and rhodamine B according to the literature), […] fluorescence collection efficiency, and c is the number density of molecules in solution. δr is the two-photon cross section of the reference molecule.

HeLa cells [3] = test: Two-photon excited fluorescence spectra of labeled HeLa cells; type: cell-based, human
Protocol: Accordingly, it can be seen that HEPES/EtOH (1/1) has polarity similar to that of the cellular environment.
This confirms again that HEPES/EtOH (1/1) is a good model of the cellular environment and HS^− can be detected by TPM using the compound of [Chemical Formula 2-6].
HeLa human cervical carcinoma cells were acquired from the ATCC (Manassas, Va., USA). The cells were cultured in DMEM (WelGene, Inc., Seoul, Korea) supplemented with heat-inactivated 10% FBS (WelGene), penicillin (100 units/mL) and streptomycin ([…]).
For labeling, the growth medium was removed and replaced with DMEM without FBS. The cells were incubated with the compound of [Chemical Formula 2-6] ([…]) for 30 minutes, washed 3 times with FBS-free DMEM and imaged.
The TPM images were obtained with the DM IRE2 microscope (Leica) by exciting the probes with a mode-locked titanium-sapphire laser source (Coherent Chameleon, 90 MHz, 200 fs) set at a wavelength of 750 nm and an output power of 1380 mW, which corresponded to an average power of approximately 2 mW in the focal plane.

[4] = Selectivity for sulfide: ratiometric response (F2/F1) in the presence of various analytes
Protocol: The ratio of fluorescence intensities (F2/F1) measured at a short wavelength (F1) and a long wavelength (F2) at 0, 60 and 120 min is shown. All the data were obtained at 37° C. in HEPES buffer. Excitation wavelengths for one-photon and two-photon processes were 370 nm (short wavelength) and 750 nm (long wavelength), respectively.
To test whether the compound of [Chemical Formula 2-6] can selectively detect HS^− over other biologically relevant species, the ratiometric response of the compound of [Chemical Formula 2-6] was determined in the presence of various analytes.

HeLa cells [5] = test: Cell viability, CCK-8 kit; type: cell-based, human; settings: incubation condition
HeLa cells [6] = test: Photostability of TPEF intensity in labeled HeLa cells; type: cell-based, human; settings: continuous radiation of fs-pulses for 60 minutes
Text: These findings confirm that the compound of [Chemical Formula 2-6] can measure the total sulfide concentration in living cells by the kinetic method with minimum interference from cytotoxicity and photostability.

[7] = pH sensitivity of the fluorescence; type: physicochemical; settings: biologically relevant pH range
[8] = HEPES buffer (20 mM HEPES, 100 mM KCl, pH 7.4)

## COCCOCCC1(CCOCCOC)c2cc(NC(=O)OCc3ccc(N=[N+]=[N-])cc3)ccc2-c2ccc(-c3nc4ccccc4s3)cc21 [Chemical Formula 2-6]
[1]; 1,4-dioxane to HEPES buffer
  Δλmax, shift of absorption spectrum with solvent polarity: 8 nm
[1]; 1,4-dioxane<DMF<EtOH<HEPES/EtOH (1/1)<HEPES buffer
  Δλ^FImax, shift of emission spectrum with solvent polarity: 31 nm
[1]; EtOH
  Φ, fluorescence quantum yield: 0.87
  λ^(1)max, one-photon absorption maximum: 354 nm
  λ^flmax, one-photon emission maximum: 437 nm
  10^−4 ε: (4.27) M^−1cm^−1
[1]; HEPES buffer
  Φ, fluorescence quantum yield: 0.013
[1]; [8]
  λ^(1)max, one-photon absorption maximum: 360 nm
  λ^flmax, one-photon emission maximum: 444 nm
[1]; HEPES buffer, pH 7.4
  ε at maximum absorption: 25000 M⁻¹ cm⁻¹
[1]; HEPES/EtOH (1/1)
  Φ, fluorescence quantum yield: 0.41
  λ^(1)max, one-photon absorption maximum: 352 nm
  λ^flmax, one-photon emission maximum: 440 nm
  10^−4 ε: (4.11) M^−1cm^−1
[1]; HEPES
  10^−4 ε: (2.50) M^−1cm^−1
[2]; HEPES
  λ^(2)max, two-photon maximum: 740 nm
[2]; HEPES buffer, 2-6 at 740 nm, 2-5 at 750 nm
  Φδmax, two-photon action cross section: 0.67 GM
[2]; HEPES/EtOH (1/1)
  λ^(2)max, two-photon maximum: 740 nm
[2]; HEPES/EtOH (1/1) vs HEPES buffer
  increase of action cross section (φδ) in HEPES/EtOH (1/1) versus HEPES buffer: 12 fold
[2]; HEPES/EtOH (1/1), GM = 10^−50 cm^4s/photon
  Φδmax, two-photon action cross section: 12 GM
HeLa cells [3]
  λ^flmax, maximum emission in cells: 450 nm
[4]; 10 mM GSH, 1 mM Cys, 1 mM 2-ME, RSS, RNS, ROS, Ala, Glu, metal ions
  reactivity toward other biologically relevant species: no reactivity
[4]; 100 mM Na2S (55.7 mM HS^−), HEPES buffer
  increase of relative fluorescence intensity ratio (F2/F1): 110 fold
[4]; HEPES buffer
  F2/F1 after deazidation: 110
[4]; commercially available GSH
  reactivity toward commercially available GSH: small reactivity
[4]; purified GSH
  reactivity toward purified GSH: no reactivity
HeLa cells [5]
  toxicity (CCK-8 kit): negligible toxicity
HeLa cells [6]
  photostability (decay of TPEF intensity): high photostability
[7]
  pH sensitivity: pH-insensitive
